{
  "source": "patent US5663296A",
  "about": "“Hydroxamate inhibitors of endothelin converting enzyme” (Warner-Lambert Company, priority 1995, dated 1997)",
  "key": {"mouse": {"test_system": "mouse", "details": "mouse model of endotoxic shock; cited from earlier work"}, "allergic sheep": {"test_system": "allergic sheep", "details": "cited from earlier work"}, "[1]": {"biological_target": "T1, endothelin converting enzyme (ECE) (Homo sapiens, UniProt P42892)", "T1 sequence (P42892 1-770)": "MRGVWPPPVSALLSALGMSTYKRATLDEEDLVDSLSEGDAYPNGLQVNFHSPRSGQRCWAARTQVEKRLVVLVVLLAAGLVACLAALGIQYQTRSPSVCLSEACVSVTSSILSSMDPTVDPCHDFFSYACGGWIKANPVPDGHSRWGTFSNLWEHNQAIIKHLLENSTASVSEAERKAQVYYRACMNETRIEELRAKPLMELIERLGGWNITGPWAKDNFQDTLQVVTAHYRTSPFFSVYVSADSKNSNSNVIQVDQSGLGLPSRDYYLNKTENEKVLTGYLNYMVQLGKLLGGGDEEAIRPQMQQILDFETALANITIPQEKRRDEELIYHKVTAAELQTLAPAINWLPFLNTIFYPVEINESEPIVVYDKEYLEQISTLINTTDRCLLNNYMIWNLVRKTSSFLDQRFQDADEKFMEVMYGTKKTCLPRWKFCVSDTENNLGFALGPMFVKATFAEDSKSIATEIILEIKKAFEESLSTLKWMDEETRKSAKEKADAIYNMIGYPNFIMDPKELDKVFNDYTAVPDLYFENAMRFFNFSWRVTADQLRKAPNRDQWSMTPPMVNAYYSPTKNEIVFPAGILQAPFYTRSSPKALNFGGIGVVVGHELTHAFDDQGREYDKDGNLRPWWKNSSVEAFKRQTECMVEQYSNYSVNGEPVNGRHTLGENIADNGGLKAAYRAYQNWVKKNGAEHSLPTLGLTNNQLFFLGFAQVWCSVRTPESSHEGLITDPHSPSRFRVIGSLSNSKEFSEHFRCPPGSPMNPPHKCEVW", "experiment": "ECE activity assay, ir-ET-1 formed from big ET measured by radioimmunoassay", "assay_type": "biochemical", "description": "ECE Activity Assay: The typical reaction mixture (50 μL) contained 10 μM big ET, 100 mM Hepes-KOH (pH 7.0), 0.25% Triton X-100, 0.01% NaN3, 0.2 mM phenylmethylsulfonyl fluoride, 50 μM pepstatin A, 0.1 mM leupeptin, the indicated concentration of compound (or DMSO for control), and the indicated amount of protein. The final DMSO concentration was kept at 3%. After incubation for 1.5 hours at 37° C., the reaction was stopped by the addition of EDTA to a final concentration of 10 mM. This final mixture was diluted (usually 100-fold) with the radioimmunoassay buffer (see below) and used for radioimmunoassay.\nRadioimmunoassay (RIA): For the measurement of immunoreactive (ir) ET-1, the assay mixture (250 μL) contained the antibody against ET-1, an ET-1 sample, and [^125 I]ET-1 (7000 cpm) in the radioimmunoassay buffer (60 mM potassium phosphate (KPi), pH 7.4/10 mM, EDTA/8 mM, NaN3 /3% DMSO/0.1% bovine serum albumin/0.1% Tween 20). The order of the addition was ET-1 sample, followed by antibody, then [^125 I]ET-1. After incubation at 4° C. for 0.5 to 2 days, unbound ET-1 was co-precipitated by the addition of charcoal (2.4%, w/v)/dextran (0.24%, w/v) suspension (125 μL) in the RIA buffer with BSA replacedby gelatin (0.25%, w/v). The amount of ir-ET-1 was measured by counting the supernatant and determined from the standard curve. The cross-reactivity to big ET-1 was less than 0.01% and the detection limit was 1 Fmol."}, "rats [2]": {"test_system": "rats", "details": "cited from earlier work"}, "rats [3]": {"test_system": "rats", "details": "cited from earlier work", "remark": "listed apart in the source"}, "[4]": {"test_system": "cultured bovine aortic endothelial cells", "details": "intracellular accumulation; cited from earlier work"}, "anaesthetized pigs": {"test_system": "anaesthetized pigs", "details": "cited from earlier work"}, "[5]": {"test_system": "pressor response of big ET", "details": "micromolar concentrations; in vitro and in vivo; cited from earlier work"}, "[6]": {"test_system": "cultured vascular endothelial cells and smooth muscle cells", "details": "cited from earlier work"}},
  "note": "Structures can show the parent of a compound that is named as a salt. *1 amine or outer side, *2 acyl side, *3 side chain or, on linkers, in order; H or OH if unused. Where a SMILES comes first, the peptide text is derived from it. [ ]: non-standard residue; d: D form. The star is where a group is joined. Trp(1-formyl) = O=Cn1cc(C[C@H](N[*:1])C(=O)[*:2])c2ccccc21; Sta = CC(C)C[C@H](N)[C@@H](O)CC(=O)O; Suc = O=C(CCC(=O)[*:2])[*:1]; Isovaleryl = CC(C)CC(=O)*; Aun = NCCCCCCCCCCC(=O)O; Boc = CC(C)(C)OC(=O)*; NHOH = ON*",
  "data": [
    {"molecule": "CC(C)C[C@@H]1NC(=O)[C@@H](C(C)C)NC(=O)[C@@H]2CCCN2C(=O)[C@@H](CC(=O)O)NC(=O)[C@@H](Cc2c[nH]c3ccccc23)NC1=O", "note": "[BQ-123] (cyclo(L[dW][dD]P[dV]))", "values": [
      {"measurement": "survival rate", "setting": "mouse", "value": "significantly increased the survival rate"},
      {"measurement": "ET-1-induced bronchoconstriction and tracheal smooth muscle contraction", "setting": "allergic sheep", "value": "block ET-1-induced bronchoconstriction and tracheal smooth muscle contraction"}
    ]},
    {"molecule": "CC[C@H](C)[C@H](NC(=O)OC(C)(C)C)C(=O)N[C@H](C(=O)N[C@@H](Cc1c[nH]c2ccccc12)C(=O)NO)[C@@H](C)CC", "note": "[Example 2, N-[(1,1-dimethylethoxy)carbonyl]-L-isoleucyl-L-isoleucyl-N-hydroxy-L-tryptophanamide] (Boc-Ile-Ile-Trp-{NHOH})", "values": [
      {"measurement": "inhibition at 100 µM", "setting": "[1]; read-out: % ECE Inhibition", "value": 47, "unit": "%"}
    ]},
    {"molecule": "CC[C@H](C)[C@H](N)C(=O)N[C@H](C(=O)N[C@@H](Cc1c[nH]c2ccccc12)C(=O)NO)[C@@H](C)CC", "note": "[Example 6, L-isoleucyl-L--isoleucyl-N-hydroxy-L-tryptophanamide, monohydrochloride] (H-Ile-Ile-Trp-{NHOH})", "values": [
      {"measurement": "inhibition at 100 µM", "setting": "[1]; read-out: % ECE Inhibition", "value": 74, "unit": "%"}
    ]},
    {"molecule": "CC[C@H](C)[C@H](NC(=O)CCC(=O)O)C(=O)N[C@H](C(=O)N[C@@H](Cc1c[nH]c2ccccc12)C(=O)NO)[C@@H](C)CC", "note": "[Example 10] (Suc-Ile-Ile-Trp-{NHOH})", "values": [
      {"measurement": "IC50", "setting": "[1]; read-out: IC50 (ECE inhibition)", "value": 4.7, "unit": "µM"}
    ]},
    {"molecule": "CC[C@H](C)[C@H](NC(=O)CCCCCCCCCCN)C(=O)N[C@H](C(=O)N[C@@H](Cc1c[nH]c2ccccc12)C(=O)NOCc1ccccc1)[C@@H](C)CC", "note": "[Example 12]", "values": [
      {"measurement": "inhibition at 100 µM", "setting": "[1]; read-out: % ECE Inhibition", "value": 65, "unit": "%"}
    ]},
    {"molecule": "CC[C@H](C)[C@H](NC(=O)CCCCCCCCCCN)C(=O)N[C@H](C(=O)N[C@@H](Cc1c[nH]c2ccccc12)C(=O)NO)[C@@H](C)CC", "note": "[Example 13] (H-[Aun]IIW-{NHOH})", "values": [
      {"measurement": "inhibition at 10 µM", "setting": "[1]; read-out: % ECE Inhibition", "value": 22, "unit": "%"},
      {"measurement": "inhibition at 50 µM", "setting": "[1]; read-out: % ECE Inhibition", "value": 57, "unit": "%"}
    ]},
    {"molecule": "COc1cccc(Oc2c(NS(=O)(=O)c3ccc(C(C)(C)C)cc3)ncnc2OCCO)c1", "note": "[RO 46-2005]", "values": [
      {"measurement": "efficacy in acute renal ischemia model", "setting": "rats [2]", "value": "effective"},
      {"measurement": "efficacy in subarachnoid hemorrhage model", "setting": "rats [3]", "value": "effective"}
    ]},
    {"molecule": "CC(C)CC(=O)N[C@H](C(=O)N[C@H](C(=O)N[C@@H](CC(C)C)[C@@H](O)CC(=O)N[C@@H](C)C(=O)N[C@@H](CC(C)C)[C@@H](O)CC(=O)O)C(C)C)C(C)C", "note": "[pepstatin] (Isovaleryl-VV[Sta]A[Sta]-OH)", "values": [
      {"measurement": "ET-1 production", "setting": "[4]", "value": "did not inhibit ET-1 production"}
    ]},
    {"molecule": "CC(C)C[C@H](NP(=O)(O)O[C@@H]1O[C@@H](C)[C@H](O)[C@@H](O)[C@H]1O)C(=O)N[C@@H](Cc1c[nH]c2ccccc12)C(=O)O", "note": "[phosphoramidon]", "values": [
      {"measurement": "plasma ET-1 level", "setting": "anaesthetized pigs", "value": "did not have any effect"},
      {"measurement": "vasoconstrictor effects evoked by intravenous big ET-1", "setting": "anaesthetized pigs", "value": "inhibit vasoconstrictor effects"},
      {"measurement": "pressor response of big ET", "setting": "[5]", "value": "block the pressor response of big ET"},
      {"measurement": "intracellular conversion of big ET-1 to ET-1", "setting": "[6]", "value": "inhibit the intracellular conversion of big ET-1 to ET-1"}
    ]},
    {"molecule": "N-[(1,1-dimethyl-ethoxy) carbonyl]-L-isoleucyl-L-isoleuyl-N-hydroxy-D-tryptophanamide [Example 3]", "values": [
      {"measurement": "% ECE Inhibition", "setting": "[1]; Conc. 100 μM", "value": 46, "unit": "%"}
    ]},
    {"molecule": "N-[(1,1-dimethyl-ethoxy) carbonyl]-L-isoleucyl-N-hydroxy-L-tryptophanamide [Example 4]", "values": [
      {"measurement": "% ECE Inhibition", "setting": "[1]; Conc. 100 μM", "value": 44, "unit": "%"}
    ]},
    {"molecule": "N-[(1,1-dimethylethoxy)-carbonyl]-L-α-aspartyl-L-isoleucyl-n-isoleucyl-1-formyl-N-hydroxy-n-tryptophanamide (Boc-DII[Trp(1-formyl)]-{NHOH}; not fully specified; printed as N-[(1,1-dimethylethoxy)-carbonyl]-L-α-aspartyl-L-isoleucyl-n-isoleucyl-1-formyl-N-hydroxy-n-tryptophanamide) [Example 22]", "values": [
      {"measurement": "% ECE Inhibition", "setting": "[1]; Conc. 10 μM", "value": 53, "unit": "%"},
      {"measurement": "% ECE Inhibition", "setting": "[1]; Conc. 40 μM", "value": 73, "unit": "%"},
      {"measurement": "% ECE Inhibition", "setting": "[1]; Conc. 100 μM", "value": 87, "unit": "%"}
    ]}
  ]
}
